Values quoted from earlier work as cited in US20070225340A1, “Phenyl Compounds And Their Use In The Treatment Of Conditions Mediated By The Action Of Pge2 At The Ep1 Receptor” (Glaxo Group Limited, priority 2004, published 2007).

Assays:
EP1 receptor [1] = target: T1, EP1 receptor (Rattus norvegicus, UniProt P70597); set-up: host or cells: living rodent (in vivo pain model); conditions: rodent, post-operative pain; Anesthesia and Analgesia 2001, 92, 233-238
T1 sequence (P70597 1-405): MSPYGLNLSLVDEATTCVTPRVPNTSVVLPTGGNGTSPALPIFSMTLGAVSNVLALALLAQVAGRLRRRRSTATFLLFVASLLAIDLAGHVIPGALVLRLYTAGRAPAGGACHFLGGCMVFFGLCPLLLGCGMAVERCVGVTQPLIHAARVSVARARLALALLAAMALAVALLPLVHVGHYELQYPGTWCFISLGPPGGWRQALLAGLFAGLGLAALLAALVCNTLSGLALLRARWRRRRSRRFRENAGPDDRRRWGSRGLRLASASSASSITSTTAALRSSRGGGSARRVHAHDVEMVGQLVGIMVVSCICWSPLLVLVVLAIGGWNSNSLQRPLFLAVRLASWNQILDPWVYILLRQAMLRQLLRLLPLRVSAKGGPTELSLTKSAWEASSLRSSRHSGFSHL

EP1 receptor [2] = target: T1, EP1 receptor; set-up: host or cells: living rat (in vivo pain model); conditions: chronic constriction injury, Anesthesia and Analgesia 2001, 93, 1012-7

In the case of `Cc1cc(Cl)ccc1S(=O)(=O)NC[C@H]1C2CCC(CC2)[C@@H]1/C=C\CCCC(=O)O` [ONO-8711], the “effect on mechanical hyperalgesia” value (EP1 receptor [1]) is listed as “inhibits mechanical hyperalgesia” and the “effect on hyperalgesia and allodynia” value (EP1 receptor [2]) is listed as “reduces hyperalgesia and allodynia”.
